Laboratory results from patent US9855204B1, “Methods and compositions for treating androgenetic alopecia” (priority 2015, dated 2018).

What was measured:
[1] = system: DHT levels; conditions: 1 mg dose taken daily; cited from earlier work
[2] = system: male pattern baldness; conditions: cited from earlier work
[3] = system: Androgenetic Alopecia Males; test: Androgenetic Alopecia Males Arm 1, Global Photographic Assessment (Omnia System); assay type: in vivo, human; conditions: 2 mg once daily, 6 months, 20 treated
Description: (§1) The description of the experiments and their results are presented in the 4 tables below. In these experiments the subjects self-administered CEP for at least 6 months.

[4] = system: Androgenetic Alopecia Males; test: Androgenetic Alopecia Males Arm 2, Global Photographic Assessment (Omnia System); assay type: in vivo, human; conditions: 2 mg once every other day, 6 months, 20 treated
Description: as §1

[5] = system: Androgenic Alopecia Females; test: Androgenic Alopecia Females, Global Photographic Assessment (Omnia System); assay type: in vivo, human; conditions: 2 mg daily, 6 months, 15 treated
Description: as §1

[6] = system: androgenetic alopecia; test: CEP in subjects with androgenetic alopecia, overall findings of the experiments; assay type: in vivo, human; conditions: inferred from benefit in users who skipped daily doses
Description: It is effective when dosed once daily or even once every other day, both of which make compliance much easier than dividing the doses into greater frequency. It is effective without regard to consumption following meals.
as §1
Some users were not perfectly compliant, sometimes skipping their daily doses. […] The expected effective dose range is from about 0.5 mg per day to about 100 mg per day.

[7] = prior medical use of CEP; cited from earlier work

For CC(C)(C)NC(=O)[C@H]1CC[C@H]2[C@@H]3CC[C@H]4NC(=O)C=C[C@]4(C)[C@H]3CC[C@]12C [finasteride, Finasteride], the “lowering of DHT levels” value [1] is listed as at most 60%, the “trial participants with substantial increase in hair growth” value ([2]; clinical trials, men) is listed as 65% and the “men in whom progression of hair loss stopped” value ([2]; men taking the drug during clinical trials) is listed as 86%. For the same molecule, the “men experiencing transient sexual side effects including erectile and libido difficulties” value ([2]; men) was “Less than 2%”.

For COc1ccc2cc1Oc1ccc(cc1)C[C@H]1c3c(cc4c(c3Oc3cc5c(cc3OC)CCN(C)[C@@H]5C2)OCO4)CCN1C [Cepharanthine], the “number of subjects with score Greatly decreased” value [3] was 0, the “number of subjects with score Greatly increased” value [3] was 1 and the “number of subjects with score Moderately decreased” value [3] was 0. For the same molecule, the “number of subjects with score Moderately increased” value [3] was 7, the “number of subjects with score No change” value [3] was 3 and the “number of subjects with score Slightly decreased” value [3] was 1. For the same molecule, the “number of subjects with score Slightly increased” value [3] was 8, the “number of subjects with score Greatly decreased” value [4] was 0 and the “number of subjects with score Greatly increased” value [4] was 0. The “number of subjects with score Moderately decreased” value [4] was 0, the “number of subjects with score Moderately increased” value [4] was 5 and the “number of subjects with score No change” value [4] was 4. The “number of subjects with score Slightly decreased” value [4] was 2, the “number of subjects with score Slightly increased” value [4] was 9 and the “number of subjects with score Greatly decreased” value [5] was 0. The “number of subjects with score Greatly increased” value [5] was 1, the “number of subjects with score Moderately decreased” value [5] was 0 and the “number of subjects with score Moderately increased” value [5] was 2. The “number of subjects with score No change” value [5] was 3, the “number of subjects with score Slightly decreased” value [5] was 1 and the “number of subjects with score Slightly increased” value [5] was 8. For the same molecule, the effective dose [6] was “about 0.5 mg CEP a day”, the safety issues [7] was “No safety issues have been observed” and the side effects [7] was “very rarely reported”.
